In patent US12083101B2, “Biaryl derivatives as YAP/TAZ-TEAD protein-protein interaction inhibitors” (Novartis AG, priority 2020, dated 2024):
Read-outs that look alike come from different tables or passages of the source.

Legend:
[1] = system: NCI-H2052 Tet-On shYAP_2371 pLenti6 MCAT_Luc cells; assay: Proliferation assay (resazurin), NCI-H2052; format: cell-based; conditions: 72 hours incubation
How it was run: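 The NCI-H2052 line carries a Tet-inducible shRNA against the YAP1 3′UTR and an MCAT luciferase reporter. The day after seeding, it received eleven 2-fold compound dilutions at 0.1% DMSO, and viability was read by resazurin fluorescence.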

[2] = biological target: His-humanTEAD4 217-434 / N-biotinylated YAP 60-100 (Homo sapiens (Human), UniProt Q15561); assay: TR-FRET YAP-TEAD4 biochemical assay, alternative format; format: binding; conditions: alternative format, marked with star *); 5 nM His-humanTEAD4 217-434, 10 nM N-biotinylated YAP 60-100
Description: […] Compounds were dissolved at 10 mM in 100% DMSO and serial dilutions were made in 100% DMSO. The diluted compound solutions were incubated in white 384-well plates (Greiner Bio-One) for 1 h at room temperature with the above described mix. The final DMSO concentration present in the assay was 1%. […] The IC50 values were estimated by fitting the data by nonlinear fit regression (GraphPad Prism).

MKN-45/Ubc-luc cells [3] = assay: Proliferation assay (resazurin), MKN-45; format: cell-based; conditions: 72 hours incubation
MKN-45/Ubc-luc cells [4] = assay: Reporter gene specificity control (Ubc-luciferase), MKN-45
[5] = system: NCI-H2052 Tet-On shYAP_2371 pLenti6 MCAT_Luc cells (YAP-dependent transcription); assay: YAP reporter gene activity assay (MCAT-luciferase), NCI-H2052; format: cell-based; conditions: 24 hours incubation, BrightGlo luminescence
How it was run: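 NCI-H2052 cells carrying an MCAT-luciferase reporter and a tetracycline-inducible YAP 3′UTR shRNA were treated with eleven 2-fold compound dilutions (0.1% DMSO) for 24 h at 37 °C. BrightGlo luminescence was background-subtracted and expressed as % of DMSO control. IC50 came from a four-parameter fit; MKN-45/Ubc-luc cells served as the specificity counterscreen.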

[6] = biological target: Avi-humanTEAD4 217-434 / Cy5 labeled humanYAP 60-100 (Homo sapiens (Human), UniProt Q15561); assay: TR-FRET YAP-TEAD4 in-vitro biochemical assay; format: binding; conditions: 1 nM Avi-humanTEAD4 217-434, 20 nM Cy5-humanYAP 60-100, 1 h room temperature
[7] = read-out: Reporter gene assay MKN-45 IC50, MKN-45/Ubc-luc cells (YAP deleted, specificity control), 24 hours incubation
[8] = Homo sapiens, MKN-45, 24 h, read-out: Reporter gene assay MKN-45 IC50 [μM], MKN-45/Ubc-luc cells (YAP deleted, specificity control), 24 hours incubation

Sequence of His-humanTEAD4 217-434 / N-biotinylated YAP 60-100 (Q15561 217-434): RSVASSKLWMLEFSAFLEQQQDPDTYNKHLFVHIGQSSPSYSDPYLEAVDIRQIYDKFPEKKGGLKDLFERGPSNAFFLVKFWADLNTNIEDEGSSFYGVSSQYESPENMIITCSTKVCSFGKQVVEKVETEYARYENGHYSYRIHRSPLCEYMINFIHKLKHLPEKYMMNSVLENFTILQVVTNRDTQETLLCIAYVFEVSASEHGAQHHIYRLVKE
Sequence of Avi-humanTEAD4 217-434 / Cy5 labeled humanYAP 60-100 (Q15561 217-434): as above

SMILES	GI50 [1] [µM]	IC50 [2] [µM]	GI50 (MKN-45/Ubc-luc cells [3]) [µM]	IC50 (MKN-45/Ubc-luc cells [4]; [7]) [µM]	IC50 [5] [µM]	GI50 ([1]; Homo sapiens, NCI-H2052, 72 h) [µM]	GI50 (MKN-45/Ubc-luc cells [3]; Homo sapiens) [µM]	IC50 (MKN-45/Ubc-luc cells [4]; [8]) [µM]	IC50 ([5]; Homo sapiens, NCI-H2052, 24 h) [µM]	IC50 [6] [µM]
NC(=O)c1cccc(F)c1-c1c(Cl)ccc2c1C[C@@](CN[C@H]1CC[C@H](C(N)=O)CC1)(c1ccccc1)O2 (relative stereo) [Example 138a, 2-((2S,4S)-2-((((Trans)-4-carbamoylcyclohexyl)amino)methyl)-5-chloro-2-phenyl-2,3-dihydrobenzofuran-4-yl)-3-fluorobenzamide]	0.366	0.018	> 13.3	> 20	0.239	–	–	–	–	–
NC(=O)c1cccc(F)c1-c1c(Cl)ccc2c1C[C@@](CN[C@H]1CC[C@@H](C(N)=O)CC1)(c1ccccc1)O2 (relative stereo) [Example 138b, 2-((2S,4S)-2-((((cis)-4-carbamoylcyclohexyl)amino)methyl)-5-chloro-2-phenyl-2,3-dihydrobenzofuran-4-yl)-3-fluorobenzamide]	0.435	0.018	> 10	7.63	0.221	–	–	–	–	–
NC[C@@]1(c2ccccc2)Cc2c(cc(F)c(Cl)c2-c2c(F)cccc2C(N)=O)O1 [Example 32a, 2-((2S,4S)-2-(Aminomethyl)-5-chloro-6-fluoro-2-phenyl-2,3-dihydrobenzofuran-4-yl)-3-fluorobenzamide]	–	0.033	–	–	–	0.833	6.12	> 10	0.498	–
CNC(=O)c1ccc(OCCO)c(F)c1-c1c(Cl)c(F)cc2c1C[C@](c1ccccc1)(C1CCN1)O2 (stereo partly drawn) [Example 149, 2-((2S,4S)-2-(Azetidin-2-yl)-5-chloro-6-fluoro-2-phenyl-2,3-dihydrobenzofuran-4-yl)-3-fluoro-4-(2-hydroxyethoxy)-N-methylbenzamide]	–	–	–	–	–	0.1	> 10	> 10	0.096	0.005
CNC(=O)c1ccc(OC[C@H](C)O)c(F)c1-c1c(Cl)c(F)cc2c1[C@H](C)[C@](c1ccccc1)(C1CCN1)O2 (stereo partly drawn) [Example 150, 2-((2S,3S,4S)-2-(Azetidin-2-yl)-5-chloro-6-fluoro-3-methyl-2-phenyl-2,3-dihydrobenzofuran-4-yl)-3-fluoro-4-((S)-2-hydroxypropoxy)-N-methylbenzamide]	–	–	–	–	–	0.085	> 10	> 10	0.074	0.004
C[C@H](O)COc1ccc(C(N)=O)c(-c2c(Cl)c(F)cc3c2C[C@](c2ccccc2)(C2CC(C)(O)CN2)O3)c1F (stereo partly drawn) [Example 159, 2-((2S,4S)-5-Chloro-6-fluoro-2-(4-hydroxy-4-methylpyrrolidin-2-yl)-2-phenyl-2,3-dihydrobenzofuran-4-yl)-3-fluoro-4-((S)-2-hydroxypropoxy)benzamide]	–	–	–	–	–	0.856	> 15	> 15	1.06	0.122
COc1ccc(C(N)=O)c(-c2c(Cl)c(F)cc3c2[C@H](O)[C@](c2ccccc2)(C2CCCN2)O3)c1F (stereo partly drawn) [Example 164, 2-((2S,3S,4S)-5-chloro-6-fluoro-3-hydroxy-2-phenyl-2-(pyrrolidin-2-yl)-2,3-dihydrobenzofuran-4-yl)-3-fluoro-4-methoxybenzamide]	–	–	–	–	–	0.107	> 10	> 10	0.107	0.004
COc1ccc(C(N)=O)c(-c2c(Cl)c(F)cc3c2[C@H](OC)[C@](c2ccccc2)(C2CCCN2)O3)c1F (stereo partly drawn) [Example 165, 2-((2S,3S,4S)-5-chloro-6-fluoro-3-methoxy-2-phenyl-2-(pyrrolidin-2-yl)-2,3-dihydrobenzofuran-4-yl)-3-fluoro-4-methoxybenzamide]	–	–	–	–	–	0.131	> 10	> 10	0.082	0.005
CO[C@H]1c2c(cc(F)c(Cl)c2-c2c(C(N)=O)ccc(OCCO)c2F)O[C@@]1(c1ccccc1)C1CCCN1 (stereo partly drawn) [Example 166, 2-((2S,3S,4S)-5-chloro-6-fluoro-3-methoxy-2-phenyl-2-(pyrrolidin-2-yl)-2,3-dihydrobenzofuran-4-yl)-3-fluoro-4-(2-hydroxyethoxy)benzamide]	–	–	–	–	–	0.256	> 10	> 10	0.136	0.008
C[C@H](O)COc1ccc(C(N)=O)c(-c2c(Cl)c(F)cc3c2[C@H](C)[C@](c2ccccc2)(C2CCCN2)O3)c1F (stereo partly drawn) [Example 167, 2-((2S,3S,4S)-5-chloro-6-fluoro-3-methyl-2-phenyl-2-(pyrrolidin-2-yl)-2,3-dihydrobenzofuran-4-yl)-3-fluoro-4-((S)-2-hydroxypropoxy)benzamide]	–	–	–	–	–	0.082	> 10	> 10	0.058	0.01
COc1ccc(C(N)=O)c(-c2c(Cl)ccc3c2C[C@](c2ccccc2)(C(C)N)O3)c1F (stereo partly drawn) [Example 168, 2-((2S,4S)-2-(1-Aminoethyl)-5-chloro-2-phenyl-2,3-dihydrobenzofuran-4-yl)-3-fluoro-4-methoxybenzamide]	–	–	–	–	–	0.267	> 10	> 10	0.253	0.012
COCCOc1ccc(C(N)=O)c(-c2c(Cl)c(F)cc3c2[C@H](C)[C@](c2ccccc2)(C(C)N)O3)c1F (stereo partly drawn) [Example 169, 2-((2S,3S,4S)-2-(1-Aminoethyl)-5-chloro-6-fluoro-3-methyl-2-phenyl-2,3-dihydrobenzofuran-4-yl)-3-fluoro-4-(2-methoxyethoxy)benzamide]	–	–	–	–	–	0.246	7.83	> 10	0.153	0.007
COc1ccc(C(N)=O)c(-c2c(Cl)c(F)cc3c2C[C@](c2ccccc2)([C@@H]2CCCN2)O3)c1F [Example 174, 2-((2S,4S)-5-Chloro-6-fluoro-2-phenyl-2-((S)-pyrrolidin-2-yl)-2,3-dihydrobenzofuran-4-yl)-3-fluoro-4-methoxybenzamide]	0.021	–	11	12	0.037	–	–	–	–	0.003
CNC(=O)c1ccc(OC)c(F)c1-c1c(Cl)c(F)cc2c1C[C@](c1ccccc1)([C@@H]1CCCN1)O2 [Example 175, 2-((2S,4S)-5-Chloro-6-fluoro-2-phenyl-2-((S)-pyrrolidin-2-yl)-2,3-dihydrobenzofuran-4-yl)-3-fluoro-4-methoxy-N-methylbenzamide]	0.05	–	7	13	0.062	–	–	–	–	0.004
COc1ccc(C(N)=O)c(-c2c(Cl)c(F)cc3c2[C@H](C)[C@@](CN)(c2ccccc2)O3)c1F [Example 176, 2-((2S,3S,4S)-2-(Aminomethyl)-5-chloro-6-fluoro-3-methyl-2-phenyl-2,3-dihydrobenzofuran-4-yl)-3-fluoro-4-methoxybenzamide]	0.021	–	16	11	0.018	–	–	–	–	0.003
